Consider 80 compounds from the METLIN SMRT retention time set (Domingo-Almenara et al. 2019).

SMILES strings stand for the structures.

The data set can be described thus: gradient 5% acetonitrile 3 min, to 50% in 2 min, to 85% in 15 min, held 3 min, 100 µL/min. The conditions noted are these: column: Zorbax Extend-C18 2.1 x 50 mm; eluents: water / acetonitrile, 0.1% formic acid. An outline of the steps: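 Using water and acetonitrile that each contained 0.1% formic acid, mixtures of ~100 pure standards were separated at 100 μL/min on a Zorbax Extend-C18 column (2.1 × 50 mm, 1.8 μm). The HPLC fed a quadrupole time-of-flight mass spectrometer working in positive and negative ionization mode, with dead and dwell volumes of 40 μL and 900 μL. Data were acquired over 3 months. Retention time was read from computationally picked adduct peaks after manual inspection of each.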
The compound `COc1ccc(NC(=O)Cn2c(=O)n(-c3ccc(C)cc3)c3ncccc32)c(OC)c1` yielded an RP-LC retention time of 872 s.
Compound `Cc1cccc(-c2nc(Cc3noc(-c4ccncc4)n3)c(C)o2)c1` gave an RP-LC retention time of 1010 s.
`Cc1ccc(NC(=O)N2CCCC(Cn3cnc4cccnc43)C2)c(Cl)c1` (stereo not given) yielded an RP-LC retention time of 682 s.
As for `Cc1[nH]c(C(=O)N2CCC(CC(=O)N(C)Cc3ccco3)CC2)c(C)c1C(=O)OC(C)C`, the figure is 798 s.
As for `Cc1ccc(CN2CCN(C3CCN(C(=O)Nc4ccc5c(c4)OCCO5)CC3)C2=O)cc1`, the figure is 765 s.
To `O=C(C1CCC(=O)N1S(=O)(=O)c1ccccc1)N1CCN(C2CCCCC2)CC1` (stereo not given) belongs 619 s.
The compound `O=S(=O)(c1cccc2nsnc12)N1CCCn2nc(-c3ccncc3)cc2C1` had an RP-LC retention time of 591 s.
As for `Cc1ccc(F)cc1S(=O)(=O)N1CCC(n2cnnc2C2CC2)CC1`, the figure is 734 s.
`O=C(CSc1cc(N2CCN(c3ccccc3F)CC2)ncn1)NCc1cccs1` displayed an RP-LC retention time of 931 s.
`CC(C)n1nc(CNC(=O)C2CCC2)c2ccccc21` displayed an RP-LC retention time of 812 s.
In the case of `Cc1ccc2c(c1)N(CC(=O)NC1CC1)C(=O)C(C)O2` (stereo not given), the RP-LC retention time amounted to 738 s.
To `CCc1cccc(NC(=O)C2CCN(S(=O)(=O)c3ccc4c(c3)NC(=O)C(C)O4)CC2)c1` (stereo not given) belongs 838 s; to `O=C(Cn1nc2c(N3CCOCC3)nccn2c1=O)Nc1cc(C(F)(F)F)ccc1Cl`, 827 s; to `Cc1cc(-c2nnc(C3CCC3)o2)c(C)n1CC(=O)Nc1ccc(F)c(F)c1`, 915 s.
As for `Cc1ccc(C(C)NC(=O)CN2C(=O)NC3(CCCCC3)C2=O)cc1` (stereo not given), the figure is 804 s.
As for `CC(C)(C)CC(=O)Nc1cnc(-c2ccc(Cl)cc2)nc1`, the figure is 1130 s; as for `O=S(=O)(NCC#CCN1CCc2ccccc2C1)c1cccs1`, 558 s.
`CCS(=O)(=O)N1CC(=O)N(c2ccc(C)c(C)c2)C(C)(C(=O)NCc2ccc(F)cc2)C1` (stereo not given): the RP-LC retention time is 846 s.
To `CCOC(=O)c1cc(S(=O)(=O)N2CCCC2C(=O)NC2CCCCCC2)cn1C` (stereo not given) belongs 968 s.
In turn, `CC1CCCN(C(=O)c2nc(-c3ccnc(N4CCCC4)c3)no2)C1` (stereo not given) showed an RP-LC retention time of 682 s.
As for `Cc1cc(C(=O)NCCc2ccc(Cl)cc2)n(-c2ccccc2)n1`, the figure is 911 s; as for `O=c1n(Cc2cccc(Br)c2)nc2ccc(S(=O)(=O)N3CCCC3)cn12`, 928 s.
To `CCc1ccc(NC(=O)C2CCc3nc(N4CCOCC4)ncc3C2)cc1` (stereo not given) belongs 835 s.
As for `CC(C)(Oc1ccc(Cl)cc1)C(=O)Nc1c(-c2ccc(F)cc2)nc2ccccn12`, the figure is 821 s.
`O=C(c1cccc(F)c1)N1CCC2(CC1)N=C(c1ccc(Cl)cc1)NO2` came in with an RP-LC retention time of 800 s.
As for `Cc1ccc(CCNC(=O)c2ncn3c2C(=O)N(C2CC2)C(C)(C(=O)NC2CCCC2)C3)cc1` (stereo not given), the figure is 795 s; as for `Cc1ccc(S(=O)(=O)N2CCC3(CC2)CN(C)CC3c2noc(C3CC3)n2)cc1` (stereo not given), 638 s; as for `CCOC(=O)C1CCN(c2ncc(C(=O)Nc3ccc(OC)cc3)c(N)n2)CC1`, 698 s.
As for `COc1ccc(-n2c(=O)c(C(=O)Nc3ccc(F)c(Cl)c3)c(O)c3cccnc32)cc1`, the figure is 1370 s.
`CC(C)n1cc(C2=CCN(S(=O)(=O)c3ccccc3)CC2)c2cccnc21` had an RP-LC retention time of 702 s.
For the compound `Cc1nc(-c2cccc(NC(=O)CCn3nnc4ccccc4c3=O)c2)cs1`, the RP-LC retention time came to 739 s.
As for `c1ccc(-c2csc(Nc3ccccn3)n2)cc1`, the figure is 860 s.
On to `CC(Cc1ccco1)NC(=O)CN1C(=O)C2CCCCN2c2ccc(S(=O)(=O)N(C)C)cc21` (stereo not given), for which the RP-LC retention time was 879 s.
As for `CCN(CC)C(=O)COc1cc(C(F)(F)F)c2c(C)nn(-c3ccc(C)cc3)c2n1`, the figure is 1250 s.
As for `COc1ccc(C(=O)Nc2nc(-c3ccc4c(c3)N(C)C(=O)C(C)O4)cs2)cc1` (stereo not given), the figure is 984 s; as for `O=C(NC1(N2CCOCC2)CC1)c1ccc(Cl)cc1`, 667 s.
To `O=S(=O)(NCc1cccnc1-c1ccc(F)cc1)c1ccc(Cl)cc1` belongs 799 s.
`Cc1ccnc(Nc2nc(C)c(C(=O)N3CCOCC3)s2)c1` showed an RP-LC retention time of 617 s.
As for `CCc1ccc(CNC(=O)C2CCCN(C(=O)c3[nH]c(C)c(C(=O)OC)c3C)C2)cc1` (stereo not given), the figure is 845 s; as for `N#Cc1ccc(S(=O)(=O)N2CCC(C(=O)NCC(=O)N3CCCc4ccccc43)CC2)cc1`, 832 s; as for `CCOC(=O)N1CCN(C(=O)CSc2nnc(C3COc4ccccc4O3)o2)CC1` (stereo not given), 762 s.
As for `Cn1c(C(N)=O)c(N2CCCC2=O)c2cc(F)ccc21`, the figure is 669 s.
To `COc1ccccc1-c1nnc(SCc2cccc(C(F)(F)F)c2)o1` belongs 991 s; to `CC(C)N1CCn2cc(S(=O)(=O)Nc3cc(F)cc(F)c3)cc2C1=O`, 794 s; to `CCOC(=O)N1CCC2(CC1)N=C(c1ccc(F)cc1)CC(c1cccc(OC)c1O)N2` (stereo not given), 748 s.
`COCCNC(=O)CSc1nccnc1Oc1ccc(C)cc1` registered an RP-LC retention time of 798 s.
To `COc1ccc(Cl)cc1S(=O)(=O)N1CC(c2nc(-c3ccncc3)nn2C)C1` belongs 664 s; to `CCn1nccc1-c1cccc(-c2noc(C(NC(=O)c3ccco3)C(C)C)n2)c1` (stereo not given), 973 s.
`CC(C)(C)C1CCC2(CC1)CCN(CCCN1CCOCC1)CC2` showed an RP-LC retention time of 619 s.
Compound `COc1nn(C)cc1C(=O)NCC(=O)N1CCc2ccccc2C1` registered an RP-LC retention time of 657 s.
To `CN1c2cc(Cl)ccc2C(=O)NC12CCN(C(=O)NCCc1ccccc1)CC2` belongs 757 s; to `Cc1ccc(NC(=O)Cc2nnc3ccc(-c4nc(C)no4)cn23)c(C)c1`, 781 s.
`N#Cc1cnc2ccc(F)cc2c1N1CCC(C(=O)N2CCSCC2)CC1` registered an RP-LC retention time of 766 s.
To `COc1cc(C(=O)NCC(c2ccc3c(c2)OCO3)N2CCOCC2)cc(OC)c1OC` (stereo not given) belongs 617 s; to `CC1CCCN(c2ccc(-c3noc(CN4CCSCC4)n3)cn2)C1` (stereo not given), 856 s.
The compound `O=C(NCC1(c2ccccc2)CCOCC1)c1c(F)cccc1Cl` returned an RP-LC retention time of 769 s.
As for `Cc1ccc(CNc2ccc(-c3nc(-c4ccc(F)cc4)no3)cn2)cc1`, the figure is 1250 s; as for `CCN(Cc1ccccc1)c1ccc(-c2noc(CN3CCCC(C)C3)n2)cn1` (stereo not given), 792 s.
To `O=C(NCC1CCCO1)c1ccccc1OCc1nc(-c2ccccc2)no1` (stereo not given) belongs 898 s; to `CC(=O)c1ccc(NC(=O)Cn2c(=O)nc(NC3CCCC3)c3ccccc32)cc1`, 635 s; to `CCCn1c(=O)sc2cc(S(=O)(=O)N3CCC(C(=O)NCC4CCCO4)CC3)ccc21` (stereo not given), 763 s.
As for `O=C(Cn1c(-c2cccs2)cc2cc(F)ccc21)N1CCN(c2ccccn2)CC1`, the figure is 761 s.
`COc1ccc(-n2nc3c(N4CCCC(C(=O)NCCCc5ccccc5)C4)nnc(C)c3c2C)cc1` (stereo not given): the RP-LC retention time was 777 s.
To `CCc1ccccc1NC(=O)Cn1c(C(C)C)nc2c(c1=O)CCN(Cc1ccccc1)C2` belongs 699 s.
As for `CCOC(=O)Cc1csc(NC(=O)Cc2cc(-c3cc4ccccc4o3)on2)n1`, the figure is 891 s; as for `CCn1ccc(NC(=O)NC2CCCC2)n1`, 730 s; as for `COc1ccc(NC(=O)N2CCN(CC(=O)c3c(C)n(C)c4ccccc34)CC2)cc1`, 656 s.
To `CN(C)CCn1nnc2cc(-c3noc(-c4cccc(F)c4)n3)ccc21` belongs 676 s; to `Cc1ccc(-c2nc3ccccn3c2Nc2ccccc2C)cc1`, 731 s; to `CC(C)OCCCNC(=O)CN1c2ccc(Br)cc2-c2ccccc2S1(=O)=O`, 961 s.
For `CCc1ccc(-c2nc(-c3ccc4c(c3)ncn4CCN3CCOCC3)no2)cc1`, the RP-LC retention time was 685 s.
`Cc1ccccc1Cn1c(CN2CCC(C(=O)NCCC(C)C)CC2)cc2ccccc21` had an RP-LC retention time of 822 s.
To `CCNc1nc(C)cc(N2CCN(C(=O)Nc3ccc(CC)cc3)CC2)n1` belongs 702 s.
`COCCC(=O)N(C)Cc1cccnc1Oc1ccccc1` came in with an RP-LC retention time of 1060 s.
For `CCOC(=O)c1nc(Nc2ccc(Cl)cc2)c2ccccc2n1`, the RP-LC retention time is 957 s.
To `Cc1cnn(Cc2nc(-c3ccc(NC(=O)c4ccco4)cc3)oc2C)c1` belongs 806 s; to `Cn1cc2c3c(cccc31)CN(C(=O)Nc1cc(Cl)ccc1Cl)CC2`, 1170 s.
To `O=C(NCc1ccc(Cl)cc1)NCC1(CO)CC1` belongs 654 s; to `Cc1ccccc1Nc1c(-c2c(F)cccc2Cl)nc2cccc(C)n12`, 762 s.
As for `CC(C)CN1C(=O)c2cccn2CC1C(=O)NCc1ccco1` (stereo not given), the figure is 733 s.
